pEC50: −log10 of the molar value.
Assays:
[1] = system: Human immunodeficiency virus 2; assay: Antiviral activity against HIV2 ROD infected in human MT4 cells assessed as protection against virus induced cytopatheic effect measured after 5 days by MTS assay; format: functional, organism-based; settings: Human immunodeficiency virus 2, ROD, MT4, 120 h
[2] = Selectivity index, ratio of CC50 for human MT4 cells to EC50 for antiviral activity against HIV-1 NL4.3; format: toxicity; settings: read-out: Ratio CC50/EC50
[3] = Cytotoxicity against human RD cells assessed as cell viability measured after 5 days by MTS assay; format: toxicity, cell-based; settings: time 5 day
[4] = Selectivity index, ratio of CC50 for human RD cells to EC50 for antiviral activity against EV-A71; format: toxicity; settings: read-out: Ratio CC50/EC50
[5] = system: Human immunodeficiency virus 1; assay: Antiviral activity against HIV1 NL4-3 infected in human MT4 cells assessed as protection against virus induced cytopatheic effect measured after 5 days by MTS assay; format: functional, organism-based; settings: Human immunodeficiency virus 1, NL4-3, MT4, 120 h
[6] = system: Enterovirus A71; assay: Antiviral activity against EV-A71 infected in RD cells assessed as protection against virus induced cytopatheic effect measured after 5 days by MTS assay; format: functional, organism-based; settings: Enterovirus A, 120 h
[7] = Cytotoxicity against human MT4 cells assessed as cell viability measured after 5 days by MTS assay; format: toxicity, cell-based; settings: time 5 day
[8] = system: Enterovirus A71; assay: Antiviral activity against Enterovirus A71 BrCr harboring VP1_S184T_P246S mutant infected in RD cells assessed as protection against virus induced cytopatheic effect measured after 5 days by MTS assay; format: functional, organism-based
[9] = system: Enterovirus A71; assay: Antiviral activity against Enterovirus A71 BrCr harboring VP1_P246S mutant infected in RD cells assessed as protection against virus induced cytopatheic effect measured after 5 days by MTS assay; format: functional, organism-based
[10] = system: Enterovirus A71; assay: Antiviral activity against Enterovirus A71 BrCr harboring VP1_S184T mutant infected in RD cells assessed as protection against virus induced cytopatheic effect measured after 5 days by MTS assay; format: functional, organism-based

O=C(CCC(CCC(=O)NC(Cc1c(-c2cc(C(=O)O)cc(C(=O)O)c2)[nH]c2ccccc12)C(=O)O)(CCC(=O)NC(Cc1c(-c2cc(C(=O)O)cc(C(=O)O)c2)[nH]c2ccccc12)C(=O)O)NC(=O)Nc1cc(C(=O)O)cc(C(=O)O)c1)NC(Cc1c(-c2cc(C(=O)O)cc(C(=O)O)c2)[nH]c2ccccc12)C(=O)O (centres undefined)
pEC50 [1]: 7.05 | selectivity ratio [2]: > 345 | CC50 at 120 h [3]: > 60000 nM | selectivity ratio [4]: > 150 | pEC50 [5]: 6.54 | pEC50 [6]: 6.40 | CC50 at 120 h [7]: > 100000 nM

O=C(CCC(CCC(=O)N[C@@H](Cc1c[nH]c2ccccc12)C(=O)O)(CCC(=O)N[C@@H](Cc1c[nH]c2ccccc12)C(=O)O)NC(=O)CCOCC(COCCC(=O)NC(CCC(=O)N[C@@H](Cc1c[nH]c2ccccc12)C(=O)O)(CCC(=O)N[C@@H](Cc1c[nH]c2ccccc12)C(=O)O)CCC(=O)N[C@@H](Cc1c[nH]c2ccccc12)C(=O)O)(COCCC(=O)NC(CCC(=O)N[C@@H](Cc1c[nH]c2ccccc12)C(=O)O)(CCC(=O)N[C@@H](Cc1c[nH]c2ccccc12)C(=O)O)CCC(=O)N[C@@H](Cc1c[nH]c2ccccc12)C(=O)O)COCCC(=O)NC(CCC(=O)N[C@@H](Cc1c[nH]c2ccccc12)C(=O)O)(CCC(=O)N[C@@H](Cc1c[nH]c2ccccc12)C(=O)O)CCC(=O)N[C@@H](Cc1c[nH]c2ccccc12)C(=O)O)N[C@@H](Cc1cc2ccccc2[nH]1)C(=O)O
pEC50 [1]: 5.18 | pEC50 [8]: 5.05 | selectivity ratio [2]: > 43 | CC50 at 120 h [3]: 25000 nM | selectivity ratio [4]: > 203 | pEC50 [9]: 5.33 | pEC50 [5]: 5.64 | pEC50 [6]: 6.52 | CC50 at 120 h [7]: > 100000 nM | pEC50 [10]: 5.70

O=C(CCC(CCC(=O)NC(Cc1c(-c2cc(C(=O)O)cc(C(=O)O)c2)[nH]c2ccccc12)C(=O)O)(CCC(=O)NC(Cc1c(-c2cc(C(=O)O)cc(C(=O)O)c2)[nH]c2ccccc12)C(=O)O)NC(=O)Nc1ccc2c(c1)Cc1ccccc1-2)NC(Cc1c(-c2cc(C(=O)O)cc(C(=O)O)c2)[nH]c2ccccc12)C(=O)O (centres undefined)
pEC50 [1]: 7.30 | selectivity ratio [2]: > 1670 | CC50 at 120 h [3]: > 100000 nM | selectivity ratio [4]: > 400 | pEC50 [5]: 7.22 | pEC50 [6]: 6.60 | CC50 at 120 h [7]: > 100000 nM

O=C(CCC(CCC(=O)NC(Cc1c(-c2cc(C(=O)O)cc(C(=O)O)c2)[nH]c2ccccc12)C(=O)O)(CCC(=O)NC(Cc1c(-c2cc(C(=O)O)cc(C(=O)O)c2)[nH]c2ccccc12)C(=O)O)NC(=O)CCCCNc1ccc([N+](=O)[O-])cc1[N+](=O)[O-])NC(Cc1c(-c2cc(C(=O)O)cc(C(=O)O)c2)[nH]c2ccccc12)C(=O)O (centres undefined)
pEC50 [1]: 6.89 | selectivity ratio [2]: > 28 | CC50 at 120 h [3]: > 100000 nM | selectivity ratio [4]: > 93 | pEC50 [5]: 5.44 | pEC50 [6]: 5.97 | CC50 at 120 h [7]: > 100000 nM

O=C(CCC(CCC(=O)NC(Cc1c(-c2cc(C(=O)O)cc(C(=O)O)c2)[nH]c2ccccc12)C(=O)O)(CCC(=O)NC(Cc1c(-c2cc(C(=O)O)cc(C(=O)O)c2)[nH]c2ccccc12)C(=O)O)NC(=O)CCCCNC(=O)Nc1cc(C(=O)O)cc(C(=O)O)c1)NC(Cc1c(-c2cc(C(=O)O)cc(C(=O)O)c2)[nH]c2ccccc12)C(=O)O (centres undefined)
pEC50 [1]: 7.40 | selectivity ratio [2]: > 500 | CC50 at 120 h [3]: > 300000 nM | selectivity ratio [4]: > 2000 | pEC50 [5]: 6.70 | pEC50 [6]: 6.82 | CC50 at 120 h [7]: > 100000 nM

O=C(CCC(CCC(=O)NC(Cc1c(-c2cc(C(=O)O)cc(C(=O)O)c2)[nH]c2ccccc12)C(=O)O)(CCC(=O)NC(Cc1c(-c2cc(C(=O)O)cc(C(=O)O)c2)[nH]c2ccccc12)C(=O)O)NC(=O)Nc1cccc(C(=O)O)c1)NC(Cc1c(-c2cc(C(=O)O)cc(C(=O)O)c2)[nH]c2ccccc12)C(=O)O (centres undefined)
pEC50 [1]: 6.96 | selectivity ratio [2]: > 141 | CC50 at 120 h [3]: > 68000 nM | selectivity ratio [4]: > 142 | pEC50 [5]: 6.15 | pEC50 [6]: 6.32 | CC50 at 120 h [7]: > 100000 nM

O=C(CCC(CCC(=O)NC(Cc1c(-c2cc(C(=O)O)cc(C(=O)O)c2)[nH]c2ccccc12)C(=O)O)(CCC(=O)NC(Cc1c(-c2cc(C(=O)O)cc(C(=O)O)c2)[nH]c2ccccc12)C(=O)O)NC(=O)CCCCCCCCCCNC(=O)Nc1cc(C(=O)O)cc(C(=O)O)c1)NC(Cc1c(-c2cc(C(=O)O)cc(C(=O)O)c2)[nH]c2ccccc12)C(=O)O (centres undefined)
pEC50 [1]: 6.02 | selectivity ratio [2]: > 25 | CC50 at 120 h [3]: > 100000 nM | selectivity ratio [4]: > 72 | pEC50 [5]: 5.40 | pEC50 [6]: 5.86 | CC50 at 120 h [7]: > 100000 nM

O=C(CCC(CCC(=O)NC(Cc1c(-c2cc(C(=O)O)cc(C(=O)O)c2)[nH]c2ccccc12)C(=O)O)(CCC(=O)NC(Cc1c(-c2cc(C(=O)O)cc(C(=O)O)c2)[nH]c2ccccc12)C(=O)O)NC(=O)Nc1ccc2ccccc2c1)NC(Cc1c(-c2cc(C(=O)O)cc(C(=O)O)c2)[nH]c2ccccc12)C(=O)O (centres undefined)
pEC50 [1]: 6.66 | selectivity ratio [2]: > 263 | CC50 at 120 h [3]: > 68000 nM | selectivity ratio [4]: > 70 | pEC50 [5]: 6.42 | pEC50 [6]: 6.01 | CC50 at 120 h [7]: > 100000 nM

O=C(CCC(CCC(=O)NC(Cc1c(-c2cc(C(=O)O)cc(C(=O)O)c2)[nH]c2ccccc12)C(=O)O)(CCC(=O)NC(Cc1c(-c2cc(C(=O)O)cc(C(=O)O)c2)[nH]c2ccccc12)C(=O)O)NC(=O)CCCCCCNC(=O)c1cc(O)c2c(c1)C(=O)c1cccc(O)c1C2=O)NC(Cc1c(-c2cc(C(=O)O)cc(C(=O)O)c2)[nH]c2ccccc12)C(=O)O (centres undefined)
pEC50 [1]: 6.15 | selectivity ratio [2]: > 32 | CC50 at 120 h [3]: > 100000 nM | selectivity ratio [4]: > 69 | pEC50 [5]: 5.51 | pEC50 [6]: 5.84 | CC50 at 120 h [7]: > 100000 nM

O=C(CCC(CCC(=O)NC(Cc1c(-c2cc(C(=O)O)cc(C(=O)O)c2)[nH]c2ccccc12)C(=O)O)(CCC(=O)NC(Cc1c(-c2cc(C(=O)O)cc(C(=O)O)c2)[nH]c2ccccc12)C(=O)O)NC(=O)COCCOCCNc1ccc([N+](=O)[O-])cc1[N+](=O)[O-])NC(=O)Cc1c(-c2cc(C(=O)O)cc(C(=O)O)c2)[nH]c2ccccc12 (centres undefined)
pEC50 [1]: 6.25 | selectivity ratio [2]: > 12 | CC50 at 120 h [3]: > 100000 nM | selectivity ratio [4]: > 103 | pEC50 [5]: 5.08 | pEC50 [6]: 6.01 | CC50 at 120 h [7]: > 100000 nM

CCOC(=O)c1ccc(OCCC2CCN(c3ccc(C)nn3)CC2)cc1 [PIRODAVIR]
CC50 at 120 h [3]: > 100000 nM | selectivity ratio [4]: > 333

NC(CCC(=O)NC(Cc1c(-c2cc(C(=O)O)cc(C(=O)O)c2)[nH]c2ccccc12)C(=O)O)(CCC(=O)NC(Cc1c(-c2cc(C(=O)O)cc(C(=O)O)c2)[nH]c2ccccc12)C(=O)O)CCC(=O)NC(Cc1c(-c2cc(C(=O)O)cc(C(=O)O)c2)[nH]c2ccccc12)C(=O)O (centres undefined)
pEC50 [1]: 7.00 | selectivity ratio [2]: > 109 | CC50 at 120 h [3]: > 100000 nM | selectivity ratio [4]: > 133 | pEC50 [5]: 6.34 | pEC50 [6]: 6.12 | CC50 at 120 h [7]: > 50000 nM

CN[C@@H]1[C@H](O[C@@H]2OC[C@@H](O)[C@H](O)[C@H]2O)[C@@H](O)[C@H](O[C@H]2c3cc(C)c(C(=O)N[C@H](C)C(=O)O)c(O)c3-c3c(cc4c(c3O)C(=O)c3cc(OC)cc(O)c3C4=O)[C@@H]2O)O[C@@H]1C [PRADIMICIN A]
selectivity ratio [2]: > 30 | CC50 at 120 h [7]: > 100000 nM
